# In patent US20140194506A1, “Use of Potassium Piperonyl Pentadienoate for Lowering Blood Lipid” (INNER MONGOLIA UNIVERSITY, priority 2011, published 2014):
# Values joined by “and” are separate entries in the source; they are usually repeats but may differ in a detail not shown here. Identical values can stand only once.
# What was measured:
# [1] = test system: high lipid mode white rats; test: Therapeutic blood lipid lowering in hyperlipoidemia mode white rats (Example 3); type: in vivo, Wistar male white rats
# Excerpt: High lipid feed formula: cholesterol 3%, lard 10%, sodium cholate 0.5%, basal feed: 86.5% (formula: flour 17.14%, rice flour 8.57%, maize 17.14%, bran 21%, fish flour 1.71%, dairy salt 0.857%, vitamin 0.085%, bean material 17.14%).
# 72 Wistar white male rats of 170±10 g of body weight were divided into 6 groups randomly and numbered. Each group included 12 rats. The rats were fed with common standard feed under experimental conditions and observed for 7 days, and its blood was sampled from tail for testing serum total cholesterol (TC). […] From the 8th day, the group I was set as a blank group, and was fed with common standard feed. Other groups were fed with high lipid feed for 8 days in a row, and the blood was sampled from tail on the next day for testing TC. […] The rats then were divided into 5 groups randomly (see table 12) according to TC levels. Each group included 10 rats (10 rats who were unsuccessful blood lipid modes were discarded). The rats were ted with high lipid teed continuously. Group was a high lipid feed mode control group. Group III was a Simvastatin 10 mg/kg group. Group IV was a GB-O group. Group V was a GB-H group. Group VI was a GB-K group. The high lipid feed mode control group was fed with high lipid feed together with distilled water. Groups III, IV, V, and VI were fed with high lipid feed together with required simvastatin, GB-O, GB-H, and GB-K suspensions (formulated by grinding with 0.5% sodium carboxymethycellulose CMC-Na) respectively. The dosing amount was 0.046 mmol/kg, and the amount of high lipid feed was 20 g per day for each rat. The grouping and the dosing amount for each group can be found in table 13.
# (§1) The body weights of white rats were determined and recorded every day. The rats for each group were dosed basing, on its body weight by feeding for 14 days at 22° C. of room temperature and 40-50% of relative humidity. On the 14th day, after fasting and freely receiving water for 16 hours, the blood was sampled from aorta, placed for 30 min to blood coagulate, centrifugated for 15 min at 3000 r/min to separate serum. The values of serum total cholesterol (TC), and triglyceride (TG) were determined on an automatic analyzer using enzymatic colorimetry, the value of high density lipoprotein cholesterol (HDL) was determined using a phosphotungstic acid-Mg precipitation method, and the value of low density lipoprotein cholesterol (LDL) was determined using a polyvinyl sulfate precipitation method.
# (§2) All data were treated statistically, and are presented as means standard deviations (x±s). The significance of difference was judged by T test. The calculation of p value was obtained by comparing the high lipid mode group with the blank control group, and comparing other test drug groups with the high lipid mode group.
# The reaction temperature was 37° C. The cholesterol ester in serum was first hydrolyzed into free cholesterol (FC) and fatty acid with cholesterol ester hydrolase (CEH.) Then, all FC in serum was oxidized into ch-4-en-3-one and H2O2) with cholesterol oxidase (COD). The resulting H2O2, was reacted with 4-aminoantipyrine (4-AAP) and 4-chlorophenol in the presence of peroxidase (POD) (Trinder reaction), to yield red quinine imine, which was colarimetrically tested at 500 nm wavelength.
# The reaction temperature was 37° C. The triglyceride in serum was first hydrolyzed into glycerol and fatty acid with lipoprotein lipase (LPL). The resulting glycerol was reacted with ATP in the presence of glycerol kinase (GK), to produce glycerol-3-phosphate and ADP. The resulting glycerol-3-phosphate was oxidized into dihydroxyacetone phosphate and H2O2 with oxygen in the presence of glycerol phosphate oxidase (GPO). […]
# [2] = test system: high lipid mode white rats; test: Prophylactic blood lipid lowering in high lipid feed white rats (Example 2); type: in vivo, Wistar male white rats
# Excerpt: High lipid feed formula: cholesterol 3%, lard 10%, sodium cholate 0.5%, basal feed: […] (formula: flour 17.14%, rice flour 8.57%, maize […], bran 21%, fish flour 1.71%, dairy salt 0.857%, vitamin 0.085%, bean material 17.14%).
# 60 Wistar White male rats of 150±10 g of body weight were fed with common standard feed for 5 days, and then divided into 6 groups randomly. Each group included 10 rats. Group I was a blank group, where the rats were fed with common standard feed. Group II was a high lipid feed mode control group. Group III was a Simvastatin 10 mg/kg group. Group IV was a GB-O group. Group V was a GB-H group. Group VI was a GB-K group. High lipid feed mode control group were fed with high lipid feed together with distilled water. Groups III, IV, V, and VI were fed with high lipid feed together with required simvastatin, GB-O, GB-H, and GB-K suspensions (formulated by grinding with 0.5% sodium […] CMC-Na) respectively. The dosing amount was 0.046 mmol/kg, and the amount of high lipid feed was 20 g per day for each rat. The grouping and the dosing amount for each group can be found in table 1.
# as §1, with “The rats in each group” for “The rats for each group”, “were dosed basing on its” for “were dosed basing, on its”, “16 hours, its blood was” for “16 hours, the blood was”, “blood coagulate, and centrifugated for” for “blood coagulate, centrifugated for”, “determined using the polyvinyl sulfate” for “determined using a polyvinyl sulfate”
# as §2, with “were” for “are”, “means±standard” for “means standard”
# The reaction temperature was 37° C. The cholesterol ester in serum was first hydrolyzed into free cholesterol (FC) and fatty acid with cholesterol ester hydrolase (CEH). Then, all FC in serum was oxidized into ch-4-en-3-one and H2O2 with cholesterol oxidase (COD). The resulting H2O2 was reacted with 4-aminoantipyrine (4-AAP) and 4-chlorophenol in the presence of peroxidase (POD) (Trinder reaction), to yield red quinine imine, which was calorimetrically tested at a 500 nm wavelength.
# The reaction temperature was 37° C. The triglyceride ire serum was first hydrolyzed into glycerol and fatty acid with lipoprotein lipase (LPL). The resulting glycerol was reacted with ATP in the presence of glycerol kinase (GK), to produce glycerol-3-phosphate and ADP. The resulting glycerol-3-phosphate was oxidized into dihydroxyacetone phosphate and H2O2 with oxygen in the presence of glycerol phosphate oxidase (GPO). The resulting H2O2 was reacted with 4-aminoantipyrine (4-AAP) and 4-chlorophenol in the presence of peroxidase (POD) (Trinder reaction), to yield red quinine imine, which was colorimetrically determined at a 500 nm wavelength.
# The LDL in serum was precipitated using PVS. The serum TC and the Ch in the resulting supernatant were determined using the enzymatic methods described hereinabove, and the LDL-C was calculated by subtracting the Ch from the serum TC. The polyethylene glycol monoether (PEGME) was added in a suitable amount in order to facilitate the precipitation of LDL. […]
# [3] = group mean n=10, 15th day after administration
# [4] = rats No. 1-10, 0.046 mmol/kg (Simvastatin 10 mg/kg), 15th day after administration
smiles,measurement,setting,value
CCC(C)(C)C(=O)O[C@H]1C[C@@H](C)C=C2C=C[C@H](C)[C@H](CC[C@@H]3C[C@@H](O)CC(=O)O3)[C@H]21 [Simvastatin],Total cholesterol value,"[1]; Table 18, mean ± standard deviation, n=10",9.59 ± 1.50
same,Triglyceride value,"[1]; Table 19, mean ± standard deviation, n=10",2.62 ± 0.54 mmol/L
same,Low density lipoprotein cholesterol,"[1]; Table 20, mean ± standard deviation, n=10",2.90 ± 0.67 mmol/L
same,High density lipoprotein cholesterol,"[1]; Table 21, mean ± standard deviation, n=10",0.75 ± 0.20 mmol/L
same,"serum high density lipoprotein cholesterol (HDL) contents, Mean",[1]; [3],0.75 mmol/L
same,"serum low density lipoprotein cholesterol (LDL) contents, Mean",[1]; [3],2.90 mmol/L
same,"serum total cholesterol (TC) contents, Mean",[1]; [3],9.59 mmol/L
same,"serum triglyceride (TG) contents, Mean",[1]; [3],2.62 mmol/L
same,"serum high density lipoprotein cholesterol (HDL) contents, individual rats",[1]; [4],1.11 mmol/L and 0.93 mmol/L and 0.58 mmol/L and 0.67 mmol/L and 0.37 mmol/L and 0.81 mmol/L and 0.77 mmol/L and 0.92 mmol/L and 0.66 mmol/L and 0.72 mmol/L
same,"serum low density lipoprotein cholesterol (LDL) contents, individual rats",[1]; [4],2.51 mmol/L and 2.84 mmol/L and 2.67 mmol/L and 3.38 mmol/L and 1.97 mmol/L and 2.37 mmol/L and 3.71 mmol/L and 4.12 mmol/L and 3.12 mmol/L and 2.36 mmol/L
same,"serum triglyceride (TG) contents, individual rats",[1]; [4],1.95 mmol/L and 3.67 mmol/L and 2.38 mmol/L and 2.08 mmol/L and 2.27 mmol/L and 3.27 mmol/L and 2.67 mmol/L and 2.36 mmol/L and 2.68 mmol/L and 2.96 mmol/L
same,"serum total cholesterol (TC) contents, individual rats","[1]; rats No. 1-10, hyperlipoidemia mode, drug 14 days, 0.046 mmol/kg (Simvastatin 10 mg/kg), 15th day after administration",7.61 mmol/L and 9.38 mmol/L and 8.81 mmol/L and 8.39 mmol/L and 12.67 mmol/L and 10.34 mmol/L and 9.37 mmol/L (2×) and 8.61 mmol/L and 11.34 mmol/L
same,Total cholesterol value,"[2]; Table 6, mean ± standard deviation, n=10",13.88 ± 3.27
same,Triglyceride value,"[2]; Table 7, mean ± standard deviation, n=10",1.22 ± 0.1841 mmol/L
same,Low density lipoprotein cholesterol,"[2]; Table 8, mean ± standard deviation, n=10",4.223 ± 0.9989 mmol/L
same,High density lipoprotein cholesterol,"[2]; Table 9, mean ± standard deviation, n=10",0.331 ± 0.0767 mmol/L
same,"serum total cholesterol (TC) contents, Mean","[2]; group mean n=10, 0.046 mmol/kg (Simvastatin 10 mg/kg), 15th day after administration",13.88 mmol/L
same,"serum high density lipoprotein cholesterol (HDL) contents, Mean",[2]; [3],0.33 mmol/L
same,"serum low density lipoprotein cholesterol (LDL) contents, Mean",[2]; [3],4.22 mmol/L
same,"serum triglyceride (TG) contents, Mean",[2]; [3],1.22 mmol/L
same,"serum high density lipoprotein cholesterol (HDL) contents, individual rats",[2]; [4],0.26 mmol/L and 0.29 mmol/L and 0.31 mmol/L (2×) and 0.47 mmol/L and 0.39 mmol/L and 0.24 mmol/L and 0.33 mmol/L and 0.43 mmol/L and 0.28 mmol/L
same,"serum low density lipoprotein cholesterol (LDL) contents, individual rats",[2]; [4],5.81 mmol/L and 4.98 mmol/L and 5.32 mmol/L and 3.73 mmol/L and 5.14 mmol/L and 3.99 mmol/L and 3.33 mmol/L and 3.37 mmol/L and 3.63 mmol/L and 2.93 mmol/L
same,"serum triglyceride (TG) contents, individual rats",[2]; [4],1.12 mmol/L and 1.53 mmol/L and 0.93 mmol/L and 1.36 mmol/L and 1.26 mmol/L and 1.00 mmol/L and 1.19 mmol/L and 1.23 mmol/L and 1.31 mmol/L and 1.28 mmol/L
same,"serum total cholesterol (TC) contents, individual rats","[2]; rats No. 1-10, high lipid feed plus drug 14 days, 0.046 mmol/kg (Simvastatin 10 mg/kg), 15th day after administration",19.21 mmol/L and 14.11 mmol/L and 12.51 mmol/L and 11.11 mmol/L and 9.19 mmol/L and 11.57 mmol/L and 10.31 mmol/L and 15.62 mmol/L and 13.60 mmol/L and 18.06 mmol/L
